Results on 3 molecules are retold here after article PMC10257182, “Discovery of senolytics using machine learning” (Nature Communications, 2023).

“And” between values parts separate entries of the source, which are not always exact repeats. Equal values may be shown once. Read-outs that look alike come from different tables or passages of the source.

Common to all, as to format: cell-based, human
Assay [1] relates to non-senescent control IMR90 ER:RAS cells. The assay can be described thus: Nuclei count (Hoechst, high content imaging) senolytic assay, OIS model, non-senescent control cells. Conditions: Homo sapiens. In outline: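 Cells seeded, left 24 h, then dosed across a 10-point […] series (10 μM down to 10 nM) with DMSO control. After 72 h, wells were fixed, permeabilised and stained with Hoechst. Nuclei were counted by high-content imaging in senescent and non-senescent IMR90 ER:RAS cultures.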

In assay [2] the test system is NOXA mRNA in senescent IMR90 ER:RAS cells. The experiment in a line: NOXA mRNA expression by RT-qPCR, OIS. To be noted: ER:RAS cells, 10 nM; relative to ER:STOP DMSO = 1; individual replicate values. Here is the method:
(§1) Total RNA was isolated using RNAeasy kit (Quiagen). cDNA was generated with reverse transcriptase iScript (Bio-Rad). RT-qPCR was performed using SYBR Select Master Mix (Applied Biosystems) in OneStepPlus detection system (Applied Biosystems). Oligos for amplification were: NOXA Fw-[…] and Rv-[…]; b-ACTIN Fw-[…] and Rv-[…]; IL1a Fw-[…] and Rv- […]; IL1b Fw-[…] and Rv- […]; IL8 Fw-[…] and Rv-[…]; p16 Fw-CGGTCGGAGGCCGATCCAG and Rv- […]; p21Fw-[…] and Rv- […].

Assay [3] has as its system Na+/K+ ATPase pump (intracellular K+) in IMR90 cells at passage 27. The experiment in a line: Intracellular K+ determination with Asante staining, replicative senescence. To be noted: Replicative Senescence cells. Here is the method:
(§2) Cells were cultured for control and senescent phenotype and then treated with the senolytics oleandrin, ouabain and periplocin at 10 nM for 72 h. Asante (Asante Potassium Green-2 AM, abcam ab142806) was added to the culture 30 min before fixation, following manufacturer instructions. DAPI staining was done before image acquisition on Nikon TI2 microscope (20x). Image analysis was performed using ImageJ 1.53k for setting intensity threshold and measuring mean intensity.

Assay [4] deals with Na+/K+ ATPase pump (intracellular K+) in senescent IMR90 ER:RAS cells. The assay can be described thus: Intracellular K+ determination with Asante staining, OIS. To be noted: FIG 4E, ER:RAS cells. Here is the method:
as §2

Assay [5] relates to NOXA mRNA in IMR90 cells at passage 27. The assay can be described thus: NOXA mRNA expression by RT-qPCR, replicative senescence. Conditions: 10 nM. Here is the method: as §1
In general terms: In qPCR the cycle at which signal appears reflects the starting amount.

[6] abbreviates: IMR-90, 72 h, Control, log (dose) [M] -5, 72 h, mean n=3 (Fig 3C), read-out: Mean % Cell Survival.
Setting [7] is: IMR-90, 72 h, Control, log (dose) [M] -5.33, 72 h, mean n=3 (Fig 3C), read-out: Mean % Cell Survival.
Where [8] appears, read: IMR-90, 72 h, Control, log (dose) [M] -5.66, 72 h, mean n=3 (Fig 3C), read-out: Mean % Cell Survival.
[9] abbreviates: IMR-90, 72 h, Control, log (dose) [M] -6, 72 h, mean n=3 (Fig 3C), read-out: Mean % Cell Survival.
[10] abbreviates: IMR-90, 72 h, Control, log (dose) [M] -6.33, 72 h, mean n=3 (Fig 3C), read-out: Mean % Cell Survival.
The mark [11] stands for this setting: IMR-90, 72 h, Control, log (dose) [M] -6.66, 72 h, mean n=3 (Fig 3C), read-out: Mean % Cell Survival.
[12] abbreviates: IMR-90, 72 h, Control, log (dose) [M] -7, 72 h, mean n=3 (Fig 3C), read-out: Mean % Cell Survival.
Where [13] appears, read: IMR-90, 72 h, Control, log (dose) [M] -7.33, 72 h, mean n=3 (Fig 3C), read-out: Mean % Cell Survival.
Where [14] appears, read: IMR-90, 72 h, Control, log (dose) [M] -7.66, 72 h, mean n=3 (Fig 3C), read-out: Mean % Cell Survival.
[15] abbreviates: IMR-90, 72 h, Control, log (dose) [M] -8, 72 h, mean n=3 (Fig 3C), read-out: Mean % Cell Survival.
[16] abbreviates: IMR-90, Control, log (dose) [M] -5.33, read-out: % Cell Survival.
[17] abbreviates: IMR-90, Control, log (dose) [M] -7, read-out: % Cell Survival.
Setting [18] is: IMR-90, Control, log (dose) [M] -7.33, read-out: % Cell Survival.
Where [19] appears, read: IMR-90, Control, log (dose) [M] -7.66, read-out: % Cell Survival.
[20] abbreviates: IMR-90, Control, log (dose) [M] -8, read-out: % Cell Survival.

Regarding `C[C@@H]1O[C@@H](O[C@H]2C[C@@H](O)[C@]3(CO)[C@H]4[C@H](O)C[C@]5(C)[C@@H](C6=CC(=O)OC6)CC[C@]5(O)[C@@H]4CC[C@]3(O)C2)[C@H](O)[C@H](O)[C@H]1O` [Ouabain, ouabain, reference compound], the viability at 10 µM in assay [1] (setting [6]) was found to be 15.9%; in assay [1] (IMR-90, control cells, log (dose) [M] -5, read-out: % Cell Survival), 10.9%. The viability at 4.677 µM was 22.3% in assay [1] (setting [7]) and 23.1% in assay [1] (IMR-90, control cells, log (dose) [M] -5.33, read-out: % Cell Survival). The viability at 2.188 µM in assay [1] (setting [8]) is 23.9%; in assay [1] (IMR-90, control cells, log (dose) [M] -5.66, read-out: % Cell Survival), 27%. For the same molecule, the viability at 1 µM in assay [1] (setting [9]) is 27%; in assay [1] (IMR-90, control cells, log (dose) [M] -6, read-out: % Cell Survival) it was 27.3%. In addition, the viability at 0.4677 µM in assay [1] (setting [10]) was found to be 29.6%; in assay [1] (IMR-90, control cells, log (dose) [M] -6.33, read-out: % Cell Survival) it was 29.4%. Moreover, the viability at 0.2188 µM stood at 46.7% in assay [1] (setting [11]) and 46% in assay [1] (IMR-90, control cells, log (dose) [M] -6.66, read-out: % Cell Survival). Moreover, the viability at 0.1 µM in assay [1] (setting [12]) was found to be 60.8%; in assay [1] (IMR-90, control cells, log (dose) [M] -7, read-out: % Cell Survival), 62.2%. For the same molecule, the viability at 0.04677 µM worked out at 78.1% in assay [1] (setting [13]) and 81.7% in assay [1] (IMR-90, control cells, log (dose) [M] -7.33, read-out: % Cell Survival). Also, the viability at 0.02188 µM turned out to be 87.3% in assay [1] (setting [14]) and 81.6% in assay [1] (IMR-90, control cells, log (dose) [M] -7.66, read-out: % Cell Survival). Further, the viability at 0.01 µM in assay [1] (setting [15]) was 88.3%; in assay [1] (IMR-90, control cells, log (dose) [M] -8, read-out: % Cell Survival) it was 86%. Besides, the viability at 0.0464 µM in assay [1] (IMR-90, Control, 46.4 nM, normalised to DMSO, individual experiments (Fig 3B), read-out: % Cell Survival) stood at 78.1%. Also, it took 231 nM to reach half-maximal inhibition in assay [1] (IMR-90, OIS model, non-senescent IMR90 ER:RAS, nuclei count, 72 h) (IC50). Moreover, the “NOXA mRNA expression” value in assay [2] was 4.99 and 3.07 and 6.94 and 6.96; in assay [5] (Replicative Senescence cells, relative to Control DMSO = 1, individual replicate values), 23.42 and 22.01 and 0.88. The “Asante Mean intensity” value is 151.8 and 154.5 and 152.7 and 153 and 150.8 and 153.1 in assay [3] (individual replicate values); 73.6 and 91 and 73.5 and 72.9 and 82 and 66.9 in assay [4] (individual replicate values). Further, the “Asante Mean intensity, group mean (Test details, Mean 2)” value in assay [3] (mean of n=6) is on record as 152.7. The “Mean (Asante Mean intensity, Tukey test details)” value in assay [4] (mean of n=7) is on record as 76.21. Further, the “NOXA mRNA expression, group mean (Test details, Mean 2)” value in assay [5] (Replicative Senescence (RS) cells, mean of n=3) is listed as 15.44.

Take `CO[C@H]1C[C@@H]2CC[C@@H](C)[C@@](O)(O2)C(=O)C(=O)N2CCCC[C@H]2C(=O)O[C@H]([C@H](C)C[C@@H]2CC[C@@H](OCCO)[C@H](OC)C2)CC(=O)[C@H](C)/C=C(\C)[C@@H](O)[C@@H](OC)C(=O)[C@H](C)C[C@H](C)/C=C/C=C/C=C/1C` [Everolimus, everolimus, reference compound]: the viability at 10 µM in assay [1] (setting [6]) turned out to be 107%. Further, the viability at 4.677 µM in assay [1] (setting [7]) turned out to be 109%. The viability at 2.188 µM in assay [1] (setting [8]) stood at 107%. Also, the viability at 1 µM in assay [1] (setting [9]) was determined as 104%; in assay [1] (IMR-90, Control, log (dose) [M] -6, read-out: % Cell Survival) it was 106%. In assay [1] (setting [10]), the viability at 0.4677 µM was found to be 105%. Moreover, the viability at 0.2188 µM in assay [1] (setting [11]) was 100%. For the same molecule, the figures for the viability at 0.1 µM in assay [1] (setting [12]) and in assay [1] (setting [17]) were 109% and 105%, respectively. Moreover, the viability at 0.04677 µM in assay [1] (setting [13]) turned out to be 105%; in assay [1] (setting [18]), 116%. In addition, the viability at 0.02188 µM in assay [1] (setting [14]) stood at 102%. Also, the values for the viability at 0.01 µM in assay [1] (setting [15]) and in assay [1] (setting [20]) were 104% and 118%, respectively. Also, the viability at 4.68 µM in assay [1] (setting [16]) amounted to 107%. Besides, the viability at 2.19 µM in assay [1] (IMR-90, Control, log (dose) [M] -5.66, read-out: % Cell Survival) stood at 108%. The viability at 0.468 µM in assay [1] (IMR-90, Control, log (dose) [M] -6.33, read-out: % Cell Survival) was determined as 92.7%. Also, the viability at 0.219 µM in assay [1] (IMR-90, Control, log (dose) [M] -6.66, read-out: % Cell Survival) was found to be 109%. The viability at 0.0219 µM in assay [1] (setting [19]) is 115%.

Regarding `COc1cc(/C=C/C(=O)O[C@H]2CC[C@]34C[C@]35CC[C@]3(C)[C@@H]([C@H](C)CCC=C(C)C)CC[C@@]3(C)[C@@H]5CC[C@H]4C2(C)C)ccc1O` [Gamma oryzanol, gamma oryzanol], the viability at 10 µM in assay [1] (setting [6]) came out at 87.1%; in assay [1] (IMR-90, Control, log (dose) [M] -5, read-out: % Cell Survival), 113%. Moreover, the viability at 4.677 µM in assay [1] (setting [7]) worked out at 92.9%. The viability at 2.188 µM in assay [1] (setting [8]) worked out at 89.6%. In assay [1] (setting [9]), the viability at 1 µM came to 86.2%. The viability at 0.4677 µM in assay [1] (setting [10]) worked out at 98.4%. In addition, the viability at 0.2188 µM in assay [1] (setting [11]) turned out to be 99.1%; in assay [1] (IMR-90, Control cells, log (dose) [M] -6.66, individual replicates, SUP FIG 4C, read-out: % Cell Survival), 93.2%. Moreover, the results for the viability at 0.1 µM in assay [1] (setting [12]) and in assay [1] (setting [17]) were 109% and 103%, respectively. For the same molecule, the viability at 0.04677 µM was 133% in assay [1] (setting [13]) and 103% in assay [1] (setting [18]). The viability at 0.02188 µM in assay [1] (setting [14]) turned out to be 118%. In addition, the viability at 0.01 µM in assay [1] (setting [15]) worked out at 115%; in assay [1] (setting [20]), 100%. In addition, the viability at 4.68 µM in assay [1] (setting [16]) was determined as 105%. Besides, the viability at 0.0219 µM in assay [1] (setting [19]) turned out to be 104%.
